Data from US6737383B1, “Herbicidal oxadiazolidines” (priority 1999, dated 2004).

Legend:
giant foxtail = assay: Test B pre/postemergence giant foxtail; format: in vivo, Setaria faberii
Outline: (§1)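 Test chemicals in a non-phytotoxic solvent mixture with surfactant were sprayed preemergence onto planted seeds and postemergence onto plants 2 to 18 cm tall (1- to 4-leaf stage). After twelve to sixteen days in a greenhouse, injury was visually rated against untreated controls from 0 (no effect) to 10 (complete control).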

sugar beet = assay: Test B pre/postemergence sugar beet; format: in vivo, Beta vulgaris
Outline: as §1

blackgrass = assay: Test B pre/postemergence blackgrass; format: in vivo, Alopecurus myosuroides
Outline: as §1

soybean = assay: Test B pre/postemergence soybean; format: in vivo, Glycine max
Outline: as §1

bamyardgrass = assay: Test B flood test barnyardgrass; format: in vivo, Echinochloa crus-galli
Outline: (§2)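 Plants were grown to the 2-leaf stage before treatment with test chemical, then held in a greenhouse for twelve to sixteen days. Injury was visually rated against untreated controls on a 0–10 scale, where 0 is no effect and 10 is complete control.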

pigweed = assay: Test B pre/postemergence pigweed; format: in vivo, Amaranthus retroflexus
Outline: as §1

purple nutsedge = assay: Test B pre/postemergence purple nutsedge; format: in vivo, Cyperus rotundus
Outline: as §1

corn = assay: Test B pre/postemergence corn; format: in vivo, Zea mays
Outline: as §1

cocklebur = assay: Test B pre/postemergence cocklebur; format: in vivo, Xanthium strumarium
Outline: as §1

bedstraw = assay: Test B pre/postemergence bedstraw; format: in vivo, Galium aparine
Outline: as §1

wild oat = assay: Test B pre/postemergence wild oat; format: in vivo, Avena fatua
Outline: as §1

velvetleaf = assay: Test B pre/postemergence velvetleaf; format: in vivo, Abutilon theophrasti
Outline: as §1

surinam grass = assay: Test B pre/postemergence surinam grass; format: in vivo, Brachiaria decumbens
Outline: as §1

smallflower flatsedge = assay: Test B flood test smallflower flatsedge; format: in vivo, Cyperus difformis
Outline: as §2

crabgrass = assay: Test B pre/postemergence crabgrass; format: in vivo, Digitaria sanguinalis
Outline: as §1

rice = assay: Test B flood test rice; format: in vivo, Oryza sativa
Outline: as §2

[1] = Postemergence, Rate 62 g/ha, scale 0 to 10, 0 is no effect, 10 is complete control
[2] = Postemergence, Rate 125 g/ha, scale of 0 to 10 where 0 is no effect and 10 is complete control
[3] = Postemergence, Rate 250 g/ha, scale of 0 to 10, 0 is no effect, 10 is complete control
[4] = Postemergence, Rate 500 g/ha, scale of 0 to 10 where 0 is no effect and 10 is complete control
[5] = Preemergence, Rate 62 g/ha, scale of 0 to 10 where 0 is no effect and 10 is complete control
[6] = Preemergence, Rate 125 g/ha, scale of 0 to 10 where 0 is no effect and 10 is complete control
[7] = Preemergence, Rate 250 g/ha, scale 0 to 10 (0 no effect, 10 complete control)
[8] = Preemergence, Rate 500 g/ha, scale of 0 to 10 where 0 is no effect and 10 is complete control
[9] = Rate 62 g/ha, flood test species, Pre-emergence, visual evaluation after twelve to sixteen days
[10] = Rate 125 g/ha, under heading Pre-emergence, flood test species, visual evaluation after twelve to sixteen days
[11] = Rate 250 g/ha, Pre-emergence (flood test species), scale 0 to 10, 0 is no effect, 10 is complete control
[12] = Rate 500 g/ha, Pre-emergence section of Table B, 0 to 10 scale (0 no effect, 10 complete control)

C=C(Cl)Cn1c(=O)on(C(=O)N(c2ccc(F)cc2F)C(C)C)c1=O [Compound 634]
Plant response rating, Giant foxtail (giant foxtail; [1]): 4 | Plant response rating, Giant foxtail (giant foxtail; [2]): 8 | Giant foxtail plant response rating (giant foxtail; [3]): 9 | Plant response rating, Giant foxtail (giant foxtail; [4]): 9 | Giant foxtail plant response rating (giant foxtail; [5]): 9 | Giant foxtail plant response rating (giant foxtail; [6]): 10 | Plant response rating, Giant foxtail (giant foxtail; [7]): 10 | Plant response rating, Giant foxtail (giant foxtail; [8]): 10 | Plant response rating, Sugarbeets (sugar beet; [1]): 0 | Plant response rating, Sugarbeets (sugar beet; [2]): 0 | Sugarbeets plant response rating (sugar beet; [3]): 0 | Sugarbeets plant response rating (sugar beet; [5]): 0 | Sugarbeets plant response rating (sugar beet; [6]): 0 | Plant response rating, Sugarbeets (sugar beet; [7]): 5 | Plant response rating, Sugarbeets (sugar beet; [8]): 6 | Plant response rating, Blackgrass (blackgrass; [1]): 2 | Plant response rating, Blackgrass (blackgrass; [2]): 6 | Blackgrass plant response rating (blackgrass; [3]): 8 | Plant response rating, Blackgrass (blackgrass; [4]): 8 | Blackgrass plant response rating (blackgrass; [5]): 4 | Blackgrass plant response rating (blackgrass; [6]): 6 | Plant response rating, Blackgrass (blackgrass; [7]): 8 | Plant response rating, Blackgrass (blackgrass; [8]): 9 | Plant response rating, Soybean (soybean; [1]): 3 | Plant response rating, Soybean (soybean; [2]): 2 | Soybean plant response rating (soybean; [3]): 3 | Soybean plant response rating (soybean; [5]): 0 | Soybean plant response rating (soybean; [6]): 0 | Plant response rating, Soybean (soybean; [7]): 0 | Plant response rating, Soybean (soybean; [8]): 0 | Plant response rating, Barnyardgrass (0 to 10 scale, 0 is no effect, 10 is complete control) (bamyardgrass; [9]): 0 | Barnyardgrass plant response rating (0 to 10 scale, 0 is no effect, 10 is complete control) (bamyardgrass; [10]): 0 | Barnyardgrass plant response rating (bamyardgrass; [11]): 0 | Barnyardgrass plant response rating (bamyardgrass; [12]): 0 | Plant response rating, Redroot pigweed (pigweed; [1]): 1 | Plant response rating, Redroot pigweed (pigweed; [2]): 2 | Redroot pigweed plant response rating (pigweed; [3]): 2 | Redroot pigweed plant response rating (pigweed; [5]): 0 | Redroot pigweed plant response rating (pigweed; [6]): 4 | Plant response rating, Redroot pigweed (pigweed; [7]): 10 | Plant response rating, Redroot pigweed (pigweed; [8]): 10 | Plant response rating, Nutsedge (purple nutsedge; [1]): 0 | Plant response rating, Nutsedge (purple nutsedge; [2]): 0 | Plant response rating, Nutsedge (purple nutsedge; [4]): 0 | Nutsedge plant response rating (purple nutsedge; [5]): 0 | Nutsedge plant response rating (purple nutsedge; [6]): 0 | Plant response rating, Nutsedge (purple nutsedge; [7]): 0 | Plant response rating, Nutsedge (purple nutsedge; [8]): 0 | Plant response rating, Corn (corn; [1]): 0 | Plant response rating, Corn (corn; [2]): 0 | Corn plant response rating (corn; [3]): 0 | Plant response rating, Corn (corn; [4]): 0 | Corn plant response rating (corn; [5]): 0 | Corn plant response rating (corn; [6]): 0 | Plant response rating, Corn (corn; [7]): 0 | Plant response rating, Corn (corn; [8]): 0 | Plant response rating, Cocklebur (cocklebur; [1]): 1 | Plant response rating, Cocklebur (cocklebur; [2]): 1 | Cocklebur plant response rating (cocklebur; [3]): 2 | Plant response rating, Cocklebur (cocklebur; [4]): 2 | Cocklebur plant response rating (cocklebur; [5]): 0 | Cocklebur plant response rating (cocklebur; [6]): 0 | Plant response rating, Cocklebur (cocklebur; [7]): 0 | Plant response rating, Cocklebur (cocklebur; [8]): 0 | Plant response rating, Bedstraw (bedstraw; [1]): 0 | Plant response rating, Bedstraw (bedstraw; [2]): 0 | Bedstraw plant response rating (bedstraw; [3]): 0 | Bedstraw plant response rating (bedstraw; [6]): 0 | Plant response rating, Wild oats (wild oat; [1]): 0 | Plant response rating, Wild oats (wild oat; [2]): 0 | Wild oats plant response rating (wild oat; [3]): 0 | Wild oats plant response rating (wild oat; [5]): 2 | Wild oats plant response rating (wild oat; [6]): 5 | Plant response rating, Wild oats (wild oat; [7]): 5 | Plant response rating, Wild oats (wild oat; [8]): 7 | Plant response rating, Velvetleaf (velvetleaf; [1]): 0 | Plant response rating, Velvetleaf (velvetleaf; [2]): 0 | Velvetleaf plant response rating (velvetleaf; [3]): 3 | Velvetleaf plant response rating (velvetleaf; [5]): 0 | Velvetleaf plant response rating (velvetleaf; [6]): 0 | Plant response rating, Velvetleaf (velvetleaf; [7]): 4 | Plant response rating, Velvetleaf (velvetleaf; [8]): 6 | Plant response rating, B. signalgrass (surinam grass; [1]): 0 | Plant response rating, B. signalgrass (surinam grass; [2]): 0 | B. signalgrass plant response rating (surinam grass; [3]): 0 | Plant response rating, B. signalgrass (surinam grass; [4]): 5 | B. signalgrass plant response rating (surinam grass; [5]): 1 | B. signalgrass plant response rating (surinam grass; [6]): 5 | Plant response rating, B. signalgrass (surinam grass; [7]): 7 | Plant response rating, B. signalgrass (surinam grass; [8]): 10 | Plant response rating, S. Flatsedge (0 to 10 scale, 0 is no effect, 10 is complete control) (smallflower flatsedge; [9]): 0 | S. Flatsedge plant response rating (0 to 10 scale, 0 is no effect, 10 is complete control) (smallflower flatsedge; [10]): 0 | S. Flatsedge plant response rating (smallflower flatsedge; [11]): 0 | S. Flatsedge plant response rating (smallflower flatsedge; [12]): 0 | Plant response rating, Crabgrass (crabgrass; [1]): 0 | Plant response rating, Crabgrass (crabgrass; [2]): 3 | Crabgrass plant response rating (crabgrass; [3]): 7 | Plant response rating, Crabgrass (crabgrass; [4]): 9 | Crabgrass plant response rating (crabgrass; [5]): 7 | Crabgrass plant response rating (crabgrass; [6]): 8 | Plant response rating, Crabgrass (crabgrass; [7]): 10 | Plant response rating, Crabgrass (crabgrass; [8]): 10 | Plant response rating, Rice (0 to 10 scale, 0 is no effect, 10 is complete control) (rice; [9]): 0 | Rice plant response rating (0 to 10 scale, 0 is no effect, 10 is complete control) (rice; [10]): 0 | Rice plant response rating (rice; [11]): 0 | Rice plant response rating (rice; [12]): 0
